Read-outs that look alike come from different tables or passages of the source.
Assays:
Assay type in all cases: in vivo
[1] = test system: wheat (Triticum aestivum); assay: Test A pre-/postemergence plant response; settings: Triticum aestivum, 240 h; for plant injury at 125 g/ha: 125 g ai/ha; for plant injury at 500 g/ha: 500 g ai/ha
Method in brief: (§1)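 Each species was treated preemergence via directed soil spray and postemergence at the one- to two-leaf stage, with compounds formulated in a non-phytotoxic solvent plus surfactant. Visual injury relative to untreated controls was rated after about ten days on a 0–100 scale.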

[2] = test system: corn (Zea mays); assay: Test A pre-/postemergence plant response; settings: Zea mays, 240 h; for Corn plant response rating (crop injury, 0 = no effect, 100 = complete kill) at 500 g/ha: 500 g ai/ha
Method in brief: as §1

[3] = test system: pigweed (Amaranthus retroflexus); assay: Test A pre-/postemergence plant response; settings: Amaranthus retroflexus, 240 h; for pest or weed control at 125 g/ha: 125 g ai/ha; for pest or weed control at 500 g/ha: 500 g ai/ha
Method in brief: as §1

[4] = test system: large crabgrass (Digitaria sanguinalis); assay: Test A pre-/postemergence plant response; settings: Digitaria sanguinalis, 240 h; for pest or weed control at 125 g/ha: 125 g ai/ha; for pest or weed control at 500 g/ha: 500 g ai/ha
Method in brief: as §1

[5] = test system: morningglory (Ipomoea spp.); assay: Test A pre-/postemergence plant response; settings: Ipomoea, 240 h; for pest or weed control at 125 g/ha: 125 g ai/ha; for pest or weed control at 500 g/ha: 500 g ai/ha
Method in brief: as §1

[6] = test system: velvetleaf (Abutilon theophrasti); assay: Test A pre-/postemergence plant response; settings: Abutilon theophrasti, 240 h; for pest or weed control at 125 g/ha: 125 g ai/ha; for pest or weed control at 500 g/ha: 500 g ai/ha
Method in brief: as §1

[7] = test system: giant foxtail (Setaria faberii); assay: Test A pre-/postemergence plant response; settings: Setaria faberi, 240 h; for pest or weed control at 125 g/ha: 125 g ai/ha; for pest or weed control at 500 g/ha: 500 g ai/ha
Method in brief: as §1

[8] = test system: barnyardgrass (Echinochloa crus-galli); assay: Test A pre-/postemergence plant response; settings: Echinochloa crus-galli, 240 h; for pest or weed control at 125 g/ha: 125 g ai/ha; for pest or weed control at 500 g/ha: 500 g ai/ha
Method in brief: as §1

[9] = test system: winter barley (Hordeum vulgare); assay: Test B postemergence plant response; settings: Postemergence
Method in brief: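 Visual ratings from 0 (no effect) to 100 (complete control), made against controls 13–15 days after treatment, kept in a greenhouse. Compounds were applied postemergence to potted plants at the 1- to 4-leaf stage (2–18 cm).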

[10] = test system: ducksalad (Heteranthera limosa); assay: Test B flooded paddy test; settings: Heteranthera limosa, 360 h
Method in brief: (§2)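 Plants were grown to the 2-leaf stage, then pots were flooded to 3 cm above the soil and compounds were applied directly into the paddy water. That depth was held throughout. After 13 to 15 days in a greenhouse, injury was visually rated against controls on a 0–100 scale.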

[11] = test system: rice (Oryza sativa); assay: Test B flooded paddy test; settings: Oryza sativa
Method in brief: as §2

[12] = test system: barnyardgrass (Echinochloa crus-galli); assay: Test B flooded paddy test; settings: Echinochloa crus-galli, 360 h
Method in brief: as §2

[13] = test system: umbrella sedge (Cyperus difformis); assay: Test B flooded paddy test; settings: Cyperus difformis, 360 h
Method in brief: as §2

COc1ccc(-n2c(-c3ccccc3)ncc(C(=O)C3=C(O)CCCC3=O)c2=O)cc1 [Compound 4, 5-[(2-hydroxy-6-oxo-cyclohexen-1-yl)carbonyl]-3-(4-methoxyphenyl)-2-phenyl-4(3H)-pyrimidinone]
plant injury at 125 g/ha ([1]; post-emergence, Postemergence, visual injury, 0 to 100 scale (0 no effect, 100 complete control), approx. ten days, read-out: Wheat plant response rating): 0%
plant injury at 500 g/ha ([1]; post-emergence, Postemergence, 0 to 100 scale, 0 = no effect, 100 = complete control, approx. ten days, read-out: Plant response rating, Wheat): 60%
plant injury at 125 g/ha ([1]; pre-emergence, Preemergence, 0 to 100 scale, 0 = no effect, 100 = complete control, read-out: Plant response rating, Wheat): 0%
plant injury at 500 g/ha ([1]; pre-emergence, Preemergence, visual injury, 0 to 100 scale (0 no effect, 100 complete control), approx. ten days, read-out: Plant response rating, Wheat): 20%
plant injury at 125 g/ha ([2]; post-emergence, Postemergence, 125 g ai/ha, visual injury, 0 to 100 scale (0 no effect, 100 complete control), approx. ten days, read-out: Corn plant response rating): 10%
Corn plant response rating (crop injury, 0 = no effect, 100 = complete kill) at 500 g/ha ([2]; post-emergence, Postemergence, 0 to 100 scale, 0 = no effect, 100 = complete control, approx. ten days): 50%
Corn plant response rating (crop injury, 0 = no effect, 100 = complete kill) at 125 g/ha ([2]; pre-emergence, Preemergence, 125 g ai/ha, 0 to 100 scale, 0 = no effect, 100 = complete control): 0%
Corn plant response rating (crop injury, 0 = no effect, 100 = complete kill) at 500 g/ha ([2]; pre-emergence, Preemergence, visual injury, 0 to 100 scale (0 no effect, 100 complete control), approx. ten days): 20%
pest or weed control at 125 g/ha ([3]; post-emergence, Postemergence, visual injury, 0 to 100 scale (0 no effect, 100 complete control), approx. ten days, read-out: Pigweed plant response rating): 100%
pest or weed control at 500 g/ha ([3]; post-emergence, Postemergence, 0 to 100 scale, 0 = no effect, 100 = complete control, approx. ten days, read-out: Plant response rating, Pigweed): 100%
pest or weed control at 125 g/ha ([3]; pre-emergence, Preemergence, 0 to 100 scale, 0 = no effect, 100 = complete control, read-out: Plant response rating, Pigweed): 90%
pest or weed control at 500 g/ha ([3]; pre-emergence, Preemergence, visual injury, 0 to 100 scale (0 no effect, 100 complete control), approx. ten days, read-out: Plant response rating, Pigweed): 90%
pest or weed control at 125 g/ha ([4]; post-emergence, Postemergence, visual injury, 0 to 100 scale (0 no effect, 100 complete control), approx. ten days, read-out: Crabgrass, Large plant response rating): 70%
pest or weed control at 500 g/ha ([4]; post-emergence, Postemergence, 0 to 100 scale, 0 = no effect, 100 = complete control, approx. ten days, read-out: Plant response rating, Crabgrass, Large): 90%
pest or weed control at 125 g/ha ([4]; pre-emergence, Preemergence, 0 to 100 scale, 0 = no effect, 100 = complete control, read-out: Plant response rating, Crabgrass, Large): 20%
pest or weed control at 500 g/ha ([4]; pre-emergence, Preemergence, visual injury, 0 to 100 scale (0 no effect, 100 complete control), approx. ten days, read-out: Plant response rating, Crabgrass, Large): 90%
pest or weed control at 125 g/ha ([5]; post-emergence, Postemergence, visual injury, 0 to 100 scale (0 no effect, 100 complete control), approx. ten days, read-out: Morningglory plant response rating): 100%
pest or weed control at 500 g/ha ([5]; post-emergence, Postemergence, 0 to 100 scale, 0 = no effect, 100 = complete control, approx. ten days, read-out: Plant response rating, Morningglory): 100%
pest or weed control at 125 g/ha ([5]; pre-emergence, Preemergence, 0 to 100 scale, 0 = no effect, 100 = complete control, read-out: Plant response rating, Morningglory): 0%
pest or weed control at 500 g/ha ([5]; pre-emergence, Preemergence, visual injury, 0 to 100 scale (0 no effect, 100 complete control), approx. ten days, read-out: Plant response rating, Morningglory): 70%
pest or weed control at 125 g/ha ([6]; post-emergence, Postemergence, visual injury, 0 to 100 scale (0 no effect, 100 complete control), approx. ten days, read-out: Velvetleaf plant response rating): 100%
pest or weed control at 500 g/ha ([6]; post-emergence, Postemergence, 0 to 100 scale, 0 = no effect, 100 = complete control, approx. ten days, read-out: Plant response rating, Velvetleaf): 100%
pest or weed control at 125 g/ha ([6]; pre-emergence, Preemergence, 0 to 100 scale, 0 = no effect, 100 = complete control, read-out: Plant response rating, Velvetleaf): 40%
pest or weed control at 500 g/ha ([6]; pre-emergence, Preemergence, visual injury, 0 to 100 scale (0 no effect, 100 complete control), approx. ten days, read-out: Plant response rating, Velvetleaf): 100%
pest or weed control at 125 g/ha ([7]; post-emergence, Postemergence, visual injury, 0 to 100 scale (0 no effect, 100 complete control), approx. ten days, read-out: Foxtail, Giant plant response rating): 80%
pest or weed control at 500 g/ha ([7]; post-emergence, Postemergence, 0 to 100 scale, 0 = no effect, 100 = complete control, approx. ten days, read-out: Plant response rating, Foxtail, Giant): 90%
pest or weed control at 125 g/ha ([7]; pre-emergence, Preemergence, 0 to 100 scale, 0 = no effect, 100 = complete control, read-out: Plant response rating, Foxtail, Giant): 10%
pest or weed control at 500 g/ha ([7]; pre-emergence, Preemergence, visual injury, 0 to 100 scale (0 no effect, 100 complete control), approx. ten days, read-out: Plant response rating, Foxtail, Giant): 70%
pest or weed control at 125 g/ha ([8]; post-emergence, Postemergence, visual injury, 0 to 100 scale (0 no effect, 100 complete control), approx. ten days, read-out: Barnyardgrass plant response rating): 90%
pest or weed control at 500 g/ha ([8]; post-emergence, Postemergence, 0 to 100 scale, 0 = no effect, 100 = complete control, approx. ten days, read-out: Plant response rating, Barnyardgrass): 100%
pest or weed control at 125 g/ha ([8]; pre-emergence, Preemergence, 0 to 100 scale, 0 = no effect, 100 = complete control, read-out: Plant response rating, Barnyardgrass): 10%
pest or weed control at 500 g/ha ([8]; pre-emergence, Preemergence, visual injury, 0 to 100 scale (0 no effect, 100 complete control), approx. ten days, read-out: Plant response rating, Barnyardgrass): 70%
plant injury at 31 g/ha ([9]; Hordeum vulgare, post-emergence, 31 g ai/ha, scale 0 to 100 (0 no effect, 100 complete control), read-out: Plant response rating, Barley): 0%
plant injury at 62 g/ha ([9]; Hordeum vulgare, post-emergence, 62 g ai/ha, scale 0 (no effect) to 100 (complete control), 13 to 15 days, read-out: Plant response rating, Barley): 0%
plant injury at 125 g/ha ([9]; Hordeum vulgare, post-emergence, 125 g ai/ha, scale 0 to 100 (0 no effect, 100 complete control), 13 to 15 days, read-out: Plant response rating, Barley): 0%
Barley plant response rating ([9]; 250 g ai/ha, scale 0 to 100): 10
pest or weed control at 250 g/ha ([10]; 250 g ai/ha, flooded paddy test, visual rating on 0 to 100 scale (0 no effect, 100 complete control) after 13 to 15 days, read-out: Plant response rating, Flood, Ducksalad): 85%
pest or weed control at 31 g/ha ([10]; Flood (flooded paddy test), 31 g ai/ha, scale of 0 to 100 where 0 is no effect and 100 is complete control, 13 to 15 days, read-out: Plant response rating, Ducksalad): 20%
pest or weed control at 62 g/ha ([10]; Flood (flooded paddy test), 62 g ai/ha, scale 0 to 100, 0 is no effect, 100 is complete control, 13 to 15 days, read-out: Plant response rating, Ducksalad): 40%
pest or weed control at 125 g/ha ([10]; Flood (flooded paddy test), 125 g ai/ha, scale 0 to 100, 0 is no effect, 100 is complete control, 13 to 15 days, read-out: Plant response rating, Ducksalad): 75%
plant injury at 250 g/ha ([11]; 250 g ai/ha, flooded paddy test, visual rating on 0 to 100 scale (0 no effect, 100 complete control) after 13 to 15 days, read-out: Plant response rating, Flood, Rice): 0%
plant injury at 31 g/ha ([11]; Flood (flooded paddy test), 31 g ai/ha, scale of 0 to 100 where 0 is no effect and 100 is complete control, 13 to 15 days, read-out: Plant response rating, Rice): 0%
plant injury at 62 g/ha ([11]; Flood (flooded paddy test), 62 g ai/ha, scale 0 to 100, 0 is no effect, 100 is complete control, 13 to 15 days, read-out: Plant response rating, Rice): 0%
plant injury at 125 g/ha ([11]; Flood (flooded paddy test), 125 g ai/ha, scale 0 to 100, 0 is no effect, 100 is complete control, 13 to 15 days, read-out: Plant response rating, Rice): 0%
pest or weed control at 250 g/ha ([12]; 250 g ai/ha, flooded paddy test, visual rating on 0 to 100 scale (0 no effect, 100 complete control) after 13 to 15 days, read-out: Plant response rating, Flood, Barnyardgrass): 20%
pest or weed control at 31 g/ha ([12]; Flood (flooded paddy test), 31 g ai/ha, scale of 0 to 100 where 0 is no effect and 100 is complete control, 13 to 15 days, read-out: Plant response rating, Barnyardgrass): 0%
pest or weed control at 62 g/ha ([12]; Flood (flooded paddy test), 62 g ai/ha, scale 0 to 100, 0 is no effect, 100 is complete control, 13 to 15 days, read-out: Plant response rating, Barnyardgrass): 0%
pest or weed control at 125 g/ha ([12]; Flood (flooded paddy test), 125 g ai/ha, scale 0 to 100, 0 is no effect, 100 is complete control, 13 to 15 days, read-out: Plant response rating, Barnyardgrass): 0%
pest or weed control at 250 g/ha ([13]; 250 g ai/ha, flooded paddy test, visual rating on 0 to 100 scale (0 no effect, 100 complete control) after 13 to 15 days, read-out: Plant response rating, Flood, Sedge, Umbrella): 90%
pest or weed control at 31 g/ha ([13]; Flood (flooded paddy test), 31 g ai/ha, scale of 0 to 100 where 0 is no effect and 100 is complete control, 13 to 15 days, read-out: Plant response rating, Sedge, Umbrella): 50%
pest or weed control at 62 g/ha ([13]; Flood (flooded paddy test), 62 g ai/ha, scale 0 to 100, 0 is no effect, 100 is complete control, 13 to 15 days, read-out: Plant response rating, Sedge, Umbrella): 65%
pest or weed control at 125 g/ha ([13]; Flood (flooded paddy test), 125 g ai/ha, scale 0 to 100, 0 is no effect, 100 is complete control, 13 to 15 days, read-out: Plant response rating, Sedge, Umbrella): 80%

From patent US8952024B2, “Herbicidal pyrimidone derivatives” (E I du Pont de Nemours and Company, priority 2009, dated 2015)
